We go through ten compounds from PubChem BioAssay AID2837 (The Scripps Research Institute Molecular Screening Center, 2010).

The source made the active and inactive calls.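 The calls were made as follows: active = IC50 of 10 µM or lower; inactive = IC50 above 10 µM.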 Where only a bound is given, the exact number is not on record here.

In the experiment the target is Guanyl-specific ribonuclease T1 (Aspergillus oryzae (strain ATCC 42149 / RIB 40)) (UniProt P00651). Nature of the experiment: dose-dependent blockade of Aspergillus RNase T1 – biochemical, fluorescence polarization, IC50, counter-screen for TPT1 inhibitor project, late-stage follow-up (AID 2837). The note with it: RNase T1 cleavage of B-U6G-AF.
Sequence of Guanyl-specific ribonuclease T1 (Aspergillus oryzae (strain ATCC 42149 / RIB 40)) (P00651 whole entry, looked up): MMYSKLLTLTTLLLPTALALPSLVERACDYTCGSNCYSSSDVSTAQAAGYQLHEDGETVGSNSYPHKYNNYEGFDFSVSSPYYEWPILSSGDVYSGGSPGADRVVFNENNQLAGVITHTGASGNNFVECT

As for `NS(=O)(=O)c1cc(C(=O)NC2CCSc3ccccc32)ccc1Cl` (stereo not given), the IC50 was > 49.8 µM (inactive).

On to `Cc1ccc(N2C(=O)NC(=O)/C(=C\c3ccc([N+](=O)[O-])o3)C2=O)cc1`, for which the IC50 result is “inactive”. In the case of `O=c1oc2c(O)c(O)cc3c(=O)oc4c(O)c(O)cc1c4c23` it was > 49.8 µM (inactive); in that of `Cc1ccccc1N1C(=O)/C(=C/c2ccco2)C(=O)NC1=S`, “inactive”; in that of `Cc1[nH]n(-c2ccc(S(=O)(=O)O)cc2)c(=O)c1N[N-]c1ccc(C2=CC(=O)/C(=N\[N-]c3ccc4c(S(=O)(=O)O)cc(S(=O)(=O)O)c(N)c4c3O)C=C2)cc1O.[Cu+].[Cu+]`, > 49.8 µM (inactive). As for `COc1ccc(OC)c(N2C(=O)/C(=C/c3ccco3)C(=O)NC2=S)c1`, the IC50 entry was “inactive”. As for `NC(=O)c1cc[n+](CC2=C(C(=O)O)N3C(=O)[C@@H](NC(=O)C(c4ccccc4)S(=O)(=O)O)[C@H]3SC2)cc1` (stereo not given in full), the IC50 is > 49.8 µM (inactive).

Regarding `Cc1cc(C)n(Cc2ccc(C(=O)NN=Cc3ccc(-c4ccc([N+](=O)[O-])cc4)o3)o2)n1`, the IC50 entry was “inactive”.

Regarding `OC(Cn1cncn1)(Cn1cncn1)c1ccc(F)cc1F`, the IC50 was > 49.8 µM (inactive). Next, `CC1=C(C#N)C(=O)N(C2CCS(=O)(=O)C2)C(=O)/C1=C\c1ccco1` (stereo not given): > 49.8 µM (inactive).
